Patent publication US9198909B1, “Materials and methods for inhibiting mamalian S-nitrosoglutathione reductase” (Indiana University Research and Technology Corporation, priority 2007, dated 2015)

Legend:
[1] = target: T1, σ-ADH (Homo sapiens, UniProt P40394); experiment: ADH isozyme selectivity study: σ-ADH; assay type: biochemical; details: about 5 μM inhibitor, pH 7.5, 2 mM NAD+, 30 mM ethanol
T1 construct: made in house; host or cells: E. coli
Description: (§1) Referring now to Table 2, briefly inhibition studies were performed in presence or absence of about 5 μM inhibitor. These studies were carried out at 25° C. in 50 mM potassium phosphate pH 7.5 including 0.1 mM EDTA. The enzymes activities were measured by following the changes in absorbance at 340 nm. The values show the percent reduction in the enzyme activity (from a minimum of two measurements) caused by the inhibitor. […] Studies with β2β2-, σσ-, π-ADH and involving compounds 5-8 were performed in 0.05% DMSO. Studies with GSNOR were performed in presence of 1% DMSO, except when compound 4 was the inhibitor. Studies with compound 4 were performed in 0.36% DMSO. DMSO at 0.36% inhibited β2β2-, σσ-, and π-ADH by 24, 18, and 9%, respectively. Studies with β2β2-ADH involved adding 3.5 μg of the enzyme to the assay mixture including 2 mM NAD^+, 1 mM ethanol and the inhibitor.
(§2) Studies with σσ-ADH involved adding 0.5 μg of enzyme to the assay mixture containing 2 mM NAD^+, 30 mM ethanol and the inhibitor. Studies with π-ADH involved adding 19.5 μg of the enzyme to the assay mixture including 1 mM NAD^+, 35 mM ethanol and the inhibitor. […]
(§3) Inhibition of the β2β2-, π-, and σ-ADH was evaluated by determining the inhibitory effect of GSNOR inhibitors on the rate of oxidation of ethanol by each of these ADH isozymes. […]

[2] = target: T2, GSNOR (Homo sapiens, UniProt P11766); experiment: ADH isozyme selectivity study: GSNOR; assay type: biochemical; set-up: made in house; host or cells: E. coli; details: about 5 μM inhibitor, pH 7.5
Description: as §1
Target sequence in this assay (P11766 2-374 limits assumed): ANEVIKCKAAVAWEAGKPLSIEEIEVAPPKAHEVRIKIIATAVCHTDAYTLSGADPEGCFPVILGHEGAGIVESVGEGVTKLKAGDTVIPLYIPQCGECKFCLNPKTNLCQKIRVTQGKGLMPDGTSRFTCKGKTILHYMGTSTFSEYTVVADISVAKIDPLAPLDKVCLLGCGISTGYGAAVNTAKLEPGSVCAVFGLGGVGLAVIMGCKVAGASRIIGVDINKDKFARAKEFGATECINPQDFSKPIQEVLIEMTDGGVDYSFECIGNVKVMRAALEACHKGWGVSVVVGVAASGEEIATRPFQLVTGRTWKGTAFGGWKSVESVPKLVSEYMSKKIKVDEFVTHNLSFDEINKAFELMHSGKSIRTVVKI
Studies with σσ-ADH involved adding 0.5 μg of enzyme to the assay mixture containing 2 mM NAD^+, 30 mM ethanol and the inhibitor. Studies with π-ADH involved adding 19.5 μg of the enzyme to the assay mixture including 1 mM NAD^+, 35 mM ethanol and the inhibitor. Studies with GSNOR involved adding 0.1 μg of the enzyme to an assay mixture including 15 μM NADH, 5 μM GSNO and the inhibitor.

[3] = system: RAW 264.7 cells; experiment: Nitroso species accumulation in RAW 264.7 cells (triiodide chemiluminescence); assay type: cell-based, rat
Description: Referring now to FIG. 3, briefly, RAW 264.7 cells were incubated with 500 μM GSNO alone (γ) or in presence of 33 μM Compound 6 (◯) or 7 (Δ) or 8 (▪). At indicated times or at 4 hr (in case of B), the cells were lysed and the lysate was analyzed for protein and nitroso species concentration by Bradford and chemiluminescence assay, respectively. For details, see Materials and methods. Data represents mean±SE (n=3−12).
RAW 264.7 cells were cultured in DMEM medium supplemented with 10% FBS, 200 U/ml of penicillin and 200 μg/mL of streptomycin. The cells were incubated at 37° C. in an atmosphere containing 5% CO2 and 95% air. For the experiments, 1-2×10^6 cells were plated in six-well plates a day before the experiment. On the day of the assay the medium was replaced with 3 ml of fresh medium and the cells were treated with compounds for a predetermined length of time. Following the incubation period, the cells were washed three times with PBS and scraped off the plate in 250 μl of lysis buffer (50 mM potassium phosphate pH 7.0 containing 50 mM NEM and 1 mM EDTA). Cells were lysed by sonication using a micro tip probe (three pulses of 30% duty cycle; 2 output control on a Fisher Sonicator). Cell debris was pelleted by centrifugation (10 min at 16,000 g) and the cell lysate was analyzed for protein concentration using the Bio-Rad dye-binding protein assay. The concentration of nitroso compounds in the cell lysate was determined using the triiodide based chemiluminescence method using a Sievers 280 nitric oxide analyzer. Briefly, cell lysates were treated with 15% v/v of a sulfanilamide solution (5% w/v in 0.2 M HCl) and kept at room temperature for 5 min to remove nitrite. The triodide mixture was prepared fresh every day as described earlier and kept at 60° C. in the reaction vessel. The concentration of nitroso species was derived from a standard curve generated using GSNO. For determining the amount of the small size nitroso compounds in the cell lysate, a 5 kDa-cutoff Amicon ultra filtration unit was used according to the supplier's instructions. The amount of s-nitrosothiols in the cell lysate was determined by treating initially passing the cell lysate through a microspin column and treating the eluate with 5 mM HgCl2 before determining the nitroso compound concentration using chemiluminescence. For some experiments the cells were pretreated with the compounds for 16 hours prior to the day of experiment.

[4] = target: T3, GSNOR•NADH complex (Homo sapiens, UniProt P11766); details: alcohol substrate, abortive ternary complex; read-out: dissociation constant for the GSNOR•NADH complex; cited from earlier work
T3 construct: made in house; host or cells: E. coli
T3 sequence (P11766 2-374 limits assumed, one chain of several): as the sequence (P11766 2-374 limits assumed) above

[5] = target: T4, π-ADH (Homo sapiens, UniProt P08319); experiment: ADH isozyme selectivity study: π-ADH; assay type: biochemical; details: about 5 μM inhibitor, pH 7.5, 1 mM NAD+, 35 mM ethanol
T4 construct: made in house; host or cells: E. coli
T4 sequence (P08319 whole entry): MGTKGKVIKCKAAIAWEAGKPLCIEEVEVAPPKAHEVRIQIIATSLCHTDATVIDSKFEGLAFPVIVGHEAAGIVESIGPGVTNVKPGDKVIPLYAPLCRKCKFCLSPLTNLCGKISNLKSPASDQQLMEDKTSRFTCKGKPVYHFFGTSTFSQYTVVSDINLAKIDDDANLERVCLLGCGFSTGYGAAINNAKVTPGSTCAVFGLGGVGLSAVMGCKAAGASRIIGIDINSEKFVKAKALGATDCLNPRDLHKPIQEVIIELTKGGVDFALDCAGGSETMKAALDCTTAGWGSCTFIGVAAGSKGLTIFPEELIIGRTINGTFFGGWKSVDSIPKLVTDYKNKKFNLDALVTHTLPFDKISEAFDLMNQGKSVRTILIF
Description: as §1, §2, §3

[6] = target: T2, GSNOR; experiment: GSNOR inhibition at pH 7.5 (GSNO, NADH); assay type: biochemical; set-up: made in house; host or cells: E. coli; details: Table 1; pH not stated
Description: Referring now to Table 1, inhibition was studied at pH 10. These assays were performed in 0.1 M sodium glycine containing 1 mM octanol, 1 mM NAD^+, 0.1 mM EDTA and 50 μM inhibitor. Inhibition studies at pH 7.5 were performed in 50 mM potassium phosphate pH 7.5 that included 15 μM NADH, 10 μM GSNO, 0.1 mM EDTA and 50 μM inhibitor. The data file to a model consisted with partial inhibition and a hill coefficient of 2.4 in the inhibition curve. The screening for GSNOR inhibitors was performed using a library of 60,000 compounds from ChemDiv Inc in the Chemical Genomics Core facility at Indiana University. Screening was conducted in 384 well plates and involved incubating GSNOR with 12.5 μM compound, 1 mM each of NAD^+ and octanol in 0.1 M sodium glycine pH 10. Enzyme activity was determined by measuring the rate of production of NADH spectrophotometrically at 340 nm. Inhibition of GSNOR was calculated from the ratio of enzyme activity in the presence of compounds to that in no compound controls performed on the same assay plate. Following their identification from the high-throughput screening, the GSNOR inhibitory properties of the initial hits were confirmed at the pH 10 using 12-hydroxydodecanoic acid as the substrate and at pH 7.5 using GSNO as the substrate (see the brief description of Table 1 for details on how the assay was carried out.)
Target sequence in this assay (P11766 2-374 limits assumed): as the sequence (P11766 2-374 limits assumed) above

[7] = target: T2, GSNOR; experiment: GSNOR substrate kinetics with octanol; assay type: biochemical; details: octanol versus GSNO
Description: GSNOR is an alcohol dehydrogenases and like other members of ADH family, is capable of oxidizing and reducing primary alcohols and aldehydes with the help of a molecule of NAD(H). Octanol was chosen as the substrate in the initial screening assay as it is bulky like GSNO, but has 200-fold higher KM value (1 mM) and a kcat value (200 min-1) that is more than 2 order of magnitude lower than that of GSNO. This allows the initial velocity conditions to prevail for a period up to 10 min (data not shown) and it enables conducting a large number of concurrent assays in a384 well plate format. The pH of the assay was adjusted to pH 10 in order to get significant rate of oxidation of octanol in the absence of compounds. The screening for GSNOR inhibitors was performed in the presence of saturating concentration of NAD^+ and an un-saturating concentration of octanol thereby increase the probability of identifying compounds that bind, only or primarily in the GSNO binding site of GSNOR. This was deemed desirable as there are many dehydrogenases inside the cells and compounds binding in the coenzyme binding site are more likely to be nonspecific inhibitors of GSNOR, than compounds that bind primarily to the form of GSNOR that binds GSNO.
Target sequence in this assay (P11766 whole entry): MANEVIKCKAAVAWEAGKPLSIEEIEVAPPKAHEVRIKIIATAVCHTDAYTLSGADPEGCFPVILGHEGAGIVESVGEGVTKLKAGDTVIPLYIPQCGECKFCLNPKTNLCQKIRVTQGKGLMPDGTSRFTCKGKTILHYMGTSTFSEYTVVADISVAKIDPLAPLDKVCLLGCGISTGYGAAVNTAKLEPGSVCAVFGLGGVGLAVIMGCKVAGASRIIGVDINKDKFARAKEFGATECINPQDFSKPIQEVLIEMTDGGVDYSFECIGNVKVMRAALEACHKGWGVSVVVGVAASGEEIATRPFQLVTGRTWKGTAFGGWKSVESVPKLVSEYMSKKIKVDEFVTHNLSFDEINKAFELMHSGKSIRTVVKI

[8] = target: T2, GSNOR; experiment: Dead-end inhibition studies of GSNOR; assay type: biochemical; set-up: made in house; host or cells: E. coli; details: pH 7.5, 25° C., GSNO held at 10 μM
Description: Referring now to Table 3, inhibition experiments were performed at 25° C. in 50 mM potassium phosphate (pH 7.5) including 0.1 mM EDTA. A minimum of five concentrations of the varied substrate and three inhibitor concentrations were used for each experiment. NADH and GSNO concentrations were held at 15 or 10 μM, respectively when present as a constant substrate in the assay. The Kis and Kii values are respectively the slope and intercept inhibition constants and are listed along with their associated standard errors. All data were fit to a competitive (C), noncompetitive (NC), or uncompetitive (UC) inhibition models. The type of inhibition shown in the table represents the best fit of the data to the given model as judged from F statistics analysis. […] The dissociation constant was measured at 25° C. in 50 mM potassium phosphate pH 7.5. Each KD value is an average of three independent experiments and is shown with the associated standard error.
Inhibition experiments with the GSNOR inhibitors were conducted at 25° C. in 3 ml of 50 mM potassium phosphate (pH 7.5) containing 0.1 mM EDTA. […] A minimum of three inhibitor concentrations were used in these assays and the rate of NADH and GSNO consumption was determined spectrophotometrically by following change in absorbance at 340 nm. […]
Target sequence in this assay (P11766 2-374 limits assumed): as the sequence (P11766 2-374 limits assumed) above

[9] = target: T3, GSNOR•NADH complex; experiment: Fluorescence equilibrium binding to GSNOR•NADH complex; details: 1.7 μM NADH, 2 μM GSNOR, 50 μM compound 8
Description: Referring now to FIG. 2, (A) Changes in the fluorescence of NADH (curve a) upon sequential addition of GSNOR (curve b) and compound 8 (curve c). To a solution of 1.7 μM NADH were added 2 μM GSNOR and 50 μM compound 8 in sequence and the fluorescence of the solution measured each time (λexc=350 nm; λemm=375-550 nm); (B) Changes in the fluorescence of NADH (curve a) upon sequential addition of GSNOR (curve b), 12-HDDA (curve c) and compound 8 (curve d). To a solution of 1.7 μM NADH were added 2 μM GSNOR, 810 μM 12-HDDA and 50 μM compound 8 in sequence and the fluorescence measured each time (λexc=350 nm; λemm=375-550 nm); (C) Binding of compound 8 to GSNOR•NADH complex. The change in fluorescence of a 1.7 μM NADH and 2 μM GSNOR mixture (λexc=350 nm; λemm=455 nm) with increasing concentrations of compound 8 was fitted to a single site binding model (equation 1; see materials and methods) using the Graphpad Prizm 4. All of the fluorescence studies were conducted at room temperature in 50 mM potassium phosphate pH 7.5.
Referring now to Table 3, inhibition experiments were performed at 25° C. in 50 mM potassium phosphate (pH 7.5) including 0.1 mM EDTA. […] The dissociation constant was measured at 25° C. in 50 mM potassium phosphate pH 7.5. […]
Fluorescence studies were conducted in 50 mM potassium phosphate pH 7.5, at room temperature using a Fluoromax-2 fluorescence spectrometer (Instruments S.A., Inc., Edison, N.J.). The equilibrium dissociation constant of GSNOR inhibitors was determined by measuring the changes in the fluorescence of GSNOR bound NADH (λexc=350 nm; λemm=455 nm) upon the addition of inhibitor. […] The decrease in fluorescence at 455 nm with each addition of inhibitor was plotted against the final concentration of inhibitor and the data were fitted to equation 1 using nonlinear regression to obtain the dissociation constant of the inhibitor for GSNOR-NADH complex,
[formula] In equation 1, ΔF is the change in the fluorescence at 455 nm upon the addition of inhibitor. ΔFM is the maximum fluorescence change that was obtained from curve fitting. […]

[10] = target: T2, GSNOR; details: read-out: KD of NADH for GSNOR; cited from earlier work
Target sequence in this assay (P11766 whole entry): as the sequence (P11766 whole entry) above

T1 sequence (P40394 whole entry): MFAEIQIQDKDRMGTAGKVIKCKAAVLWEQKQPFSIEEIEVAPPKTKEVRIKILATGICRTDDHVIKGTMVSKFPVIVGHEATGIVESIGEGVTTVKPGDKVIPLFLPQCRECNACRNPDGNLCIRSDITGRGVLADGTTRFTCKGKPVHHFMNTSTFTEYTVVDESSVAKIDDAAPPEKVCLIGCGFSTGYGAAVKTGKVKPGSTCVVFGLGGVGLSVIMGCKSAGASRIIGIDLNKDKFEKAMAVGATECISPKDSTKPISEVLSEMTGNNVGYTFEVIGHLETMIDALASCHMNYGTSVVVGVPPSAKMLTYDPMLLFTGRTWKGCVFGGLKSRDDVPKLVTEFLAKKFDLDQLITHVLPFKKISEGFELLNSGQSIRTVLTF

SMILES: CC(=O)Oc1ccc(C2Nc3ccc(C(=O)O)cc3C3C=CCC32)c(OC(C)=O)c1 (stereo not shown) [Compound 5]
- inhibition of σ-ADH [1]: significant inhibition
- inhibition of GSNOR (in words) [2]: modestly good inhibitor

SMILES: N[C@@H](CCC(=O)N[C@@H](CSN=O)C(=O)NCC(=O)O)C(=O)O [GSNO, s-nitrosoglutathione]
- buildup of nitrosylated compounds in cells ([3]; 500 μM GSNO alone): significant buildup
- time to equilibrium level of nitrosylated compounds ([3]; 500 μM GSNO alone): ≤ 1 h

SMILES: O=C(O)CCCCCCCCCCCO [Compound 12-HDDA, 12-hydroxydodecanoic acid]
- Kd [4]: 170 µM

SMILES: Cc1ccc(C)c(-c2csc(-c3cc4ccc(O)cc4oc3=O)n2)c1 [Compound 4]
- inhibition of π-ADH [5]: inhibited π-ADH more than GSNOR

SMILES: O=C(O)c1ccc2c(c1)C1C=CCC1C(c1ccc(O)cc1O)N2 (stereo not shown) [hydrolyzed form of compound 5]
- inhibition of GSNOR compared with compound 5 (ester) [6]: three fold higher inhibition

SMILES: CCCCCCCCO [octanol]
- KM value, fold higher than GSNO [7]: 200 fold

SMILES: CC(=O)c1ccc(-n2c(CCC(=O)O)ccc2-c2ccccc2)cc1 [Compound 6]
- type of inhibition against varied NADH [8]: uncompetitive
- nitrosylation, fold higher than Compound 7 ([3]; 33 μM initial concentration, 500 μM GSNO, 4 hr): 3 fold
- decrease in nitrosylated species relative to amounts at 4 hours ([3]; exposure up to 24 hours, data not shown): 80%
- effect on fluorescence of GSNOR bound NADH [9]: quenched the NADH fluorescence

SMILES: NC(=O)C1=CN([C@@H]2O[C@H](COP(=O)(O)OP(=O)(O)OC[C@H]3O[C@@H](n4cnc5c(N)ncnc54)[C@H](O)[C@@H]3O)[C@@H](O)[C@H]2O)C=CC1 [NADH]
- Kd [10]: 0.05 µM
